What was measured:
[1] = test system: pyruvate dehydrogenase kinase (PDHK); details: as described in patent document 1 (WO 2014/142290); cited from earlier work
[2] = test system: saline-loaded SDT-fatty rats; 5/6 nephrectomized rats; assay: disease model animals exhibiting CKD-like renal disorder and decreased renal function (saline-loaded SDT-fatty rat model; 5/6 nephrectomized rat model); type: in vivo; details: oral administration in feed
Experimental: Experimental Example 1: Suppressive effects of compound A on urinary protein excretion and renal disorder by oral administration of monohydrate of compound A in saline-loaded SDT-fatty rat model
In saline-loaded Spontaneously Diabetic Torii fatty (SDI-fatty) rats, suppressive effects of compound A on urinary protein excretion and renal disorder were evaluated. The evaluation was performed by reference to non-patent document 1. As the experiment animal, 6-week-old male SDI-fatty rats (CLEA Japan, Inc.) were used. A normal powder feed (CRF-1 powder, Oriental Yeast. Co., ltd.) containing 0.005 w/w % of a monohydrate of compound A as a free form of compound A was prepared. […]
For urine, after measuring the urine volume, the protein concentration in the urine was measured by the absorbance at wavelength 590 nm using a total protein quantification kit (TONEIN-TP, Otsuka Pharmaceutical Co., Ltd.). Amount of the urinary protein excretion (mg/6 hours) was calculated from the urine volume and protein concentration. […]
The mean and standard deviation of urinary protein excretion for each group were calculated, and the results thereof are shown in FIG. 1. […]
In 5/6 nephrectomized rats, suppressive effects of compound A on urinary protein excretion and renal disorder were evaluated. […]

## CC(C)(O)CCOc1cc(-c2cnn(C(C)(C)C(N)=O)c2)c2c(c1)[C@@](O)(C(F)(F)F)c1ccccc1-2 [compound A, 2-{4-[(9R)-9-hydroxy-2-(3-hydroxy-3-methylbutyloxy)-9-(trifluoromethyl)-9H-fluoren-4-yl]-1H-pyrazol-1-yl}-2-methylpropanamide]
[1]
  pyruvate dehydrogenase kinase (PDHK) inhibitory activity: inhibitory activity
[2]
  severity of the disease: significantly reduces the severity of the disease
